The structures appear in SMILES notation.

Drawing on US12516062B2, “Agricultural or horticultural insecticide or animal ectoparasite or endoparasite control agent each comprising an imidazopyridazine compound having a substituted cyclopropane-oxadiazole group or a salt thereof as active ingredient, and method for using the insecticide or the control agent” (NIHON NOHYAKU CO., LTD., priority 2019, dated 2026), this text covers mortality and inhibition for four compounds.

Holding throughout (type): in vivo
The test system of assay [1] is Laodelphax striatellus. Nature of the assay: whole plant or invertebrate. The conditions noted are these: 192 h, rice seedlings dipped 30 seconds, 3rd-instar larvae, 8 days after inoculation, read-out: insecticidal efficacy (corrected mortality rate), activity level.
In assay [2] the test system is Plutella xylostella. Kind of assay: whole plant or invertebrate. The conditions noted are these: in Brassica rapa, 144 h, seedlings with laid eggs dipped about 30 seconds, 25° C., 6 days after dip treatment, read-out: insecticidal efficacy (corrected mortality rate), activity level.
For assay [3], the system named is Haemonchus contortus. Nature of the assay: Larval motility assay on Haemonchus contortus. The conditions noted are these: 96 h, L1 stage larvae, 4 days, relative to DMSO only, read-out: percent motility inhibition. The protocol:
Larval Motility Assay on Haemonchus contortus
DMSO diluted solutions of various compounds of the present invention were added at the final concentration of 50 ppm to the wells of a 96-well plate containing a predetermined conditioned medium. Twenty L1 stage larvae of H. contortus were introduced into each well of the 96-well plate. The plate was allowed to stand for 4 days, and then larval motility was examined. The percent motility inhibition in the wells of each treatment was calculated relative to the wells of treatment with DMSO only.

In assay [4] the test system is Dirofilaria immitis. Nature of the assay: Larval motility assay on Dirofilaria immitis. The conditions noted are these: 72 h, read-out: percent motility inhibition. As to the method: Larval Motility Assay on Dirofilaria immitis
Five hundred L1 stage larvae of D. immitis were diluted in a predetermined conditioned medium and introduced into each well of a 96-well plate. DMSO diluted solutions of various compounds of the present invention were added at the final concentration of 50 ppm to the wells of the 96-well plate. The plate was allowed to stand for 3 days, and then larval motility was examined. The percent motility inhibition in the wells of each treatment was calculated relative to the wells of treatment with DMSO only.

Assay [5] has as its system Rhipicephalus sanguineus. Nature of the assay: Assay for transdermal parasiticidal activity against nymphs of Rhipicephalus sanguineus. The conditions noted are these: 48 h, read-out: mortality rate. An excerpt: Assay for Transdermal Parasiticidal Activity Against Nymphs of Rhipicephalus sanguineus
DMSO diluted solutions of various compounds of the present invention were individually diluted to the final concentration of 100 ppm with an acetone/triton mixture and applied to the inside of vented sample bottles. After overnight drying, ten nymphs of R. sanguineus were introduced into each bottle, and the mortality rate was examined two days later. Aberrant adults were regarded as the dead.

Take `CCS(=O)(=O)c1cc(-c2noc(C3CC3C)n2)cnc1-c1nc2cc(C(F)(F)C(F)(F)F)nnc2n1C` (stereo not drawn) [Compound 1-1]: the mortality at 500 ppm in assay [1] and in assay [2] was 100% in each case. The inhibition at 50 ppm in assay [3] and in assay [4] was at least 50% throughout.

For `CCS(=O)(=O)c1cc(-c2noc(C3(C(F)(F)F)CC3)n2)cnc1-c1nc2cc(C(F)(F)C(F)(F)F)nnc2n1C` [Compound 1-2, 3-(5-(ethylsulfonyl)-6-(3-methyl-6-pentafluoroethyl-3[ ]-imidazo[4,5-c]pyridazin-2-yl)pyridin-3-yl)-5-(1-trifluoromethylcyclopropyl)-1,2,4-oxadiazole], the mortality at 500 ppm in assay [1] and in assay [2] was 100% in each case. Moreover, the inhibition at 50 ppm in assay [3] and in assay [4] was at least 50% each time. Further, the mortality at 100 ppm in assay [5] was at least 50%.

Consider `CCS(=O)(=O)c1cc(-c2noc(C3(c4ccccc4)CC3)n2)cnc1-c1nc2cc(C(F)(F)C(F)(F)F)nnc2n1C` [Compound 1-3], for which the mortality at 500 ppm in assay [1] and in assay [2] was 100% each time. Also, the inhibition at 50 ppm in assay [3] and in assay [4] was at least 50% throughout. Besides, the mortality at 100 ppm in assay [5] is at least 50%.

As for `CCS(=O)(=O)c1cc(-c2noc(C3(C)CC3)n2)cnc1-c1nc2cc(C(F)(F)C(F)(F)F)nnc2n1C` [Compound 1-4], the mortality at 500 ppm in assay [1] and in assay [2] was 100% throughout. The inhibition at 50 ppm in assay [3] and in assay [4] was at least 50% each time.

What is called mortality is the share of the test organisms that died. Broadly, the inhibition is the percentage by which the read-out fell short of the control.
